Columns and labels:
Test in all cases: KinaseProfiler kinase assay
Type in all cases: biochemical
[1] = biological target: Abl(h) (Homo sapiens, UniProt P00519)
[2] = biological target: KDR(h) (Homo sapiens, UniProt P35968)
[3] = biological target: T1, Aurora-A(h) (Homo sapiens, UniProt O14965); conditions: read-out: % Inhibition @1 μM Auroro-A
T1 sequence (O14965 1-403): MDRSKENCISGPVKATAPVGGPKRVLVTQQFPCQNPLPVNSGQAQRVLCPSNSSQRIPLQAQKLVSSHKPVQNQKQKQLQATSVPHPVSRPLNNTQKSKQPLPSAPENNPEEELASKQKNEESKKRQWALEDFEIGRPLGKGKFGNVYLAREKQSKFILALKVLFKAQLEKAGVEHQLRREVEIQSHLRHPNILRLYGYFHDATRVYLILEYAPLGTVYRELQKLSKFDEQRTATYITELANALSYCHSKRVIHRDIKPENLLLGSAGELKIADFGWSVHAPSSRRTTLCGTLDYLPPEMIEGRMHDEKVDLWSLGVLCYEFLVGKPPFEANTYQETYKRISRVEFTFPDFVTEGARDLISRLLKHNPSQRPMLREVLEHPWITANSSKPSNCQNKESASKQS
Procedure: (§1) This example tests the inhibitory properties of representative compounds of the invention in c-Src kinase, Aurora-A kinase, Flt3 kinase, Ret kinase and TrkA Kinase assays (see, Daniele Fancelli et al, J. Med. Chem., 2006, 49 (24), pp 7247-7251). The KinaseProfiler™ Service Assay Protocols (Millipore) was used to test the kinase inhibiting activity of novel compounds from this invention. To do this, the buffer composition was as: 20 mM MOPS, 1 mM EDTA, 0.01% Brij-35, 5% Glycerol, 0.1% β-mercaptoethanol, 1 mg/mL BSA. Test compounds were initially dissolved in DMSO at the desired concentration, then serially diluted to the kinase assay buffer. In a final reaction volume of 25 μL, Aurora-A(h) (5-10 mU) is incubated with 8 mM MOPS pH 7.0, 0.2 mM EDTA, 200 μM LRRASLG (Kemptide), 10 mM MgAcetate and [γ^33P-ATP]. The reaction was initiated by the addition of the MgATP mix. After incubation for 40 minute at room temperature, the reaction was stopped by addition of 5 μL of a 3% phosphoric acid solution. 10 μL of the reaction was then spotted onto a P30 filtermat and washed three times for 5 minutes in 50 mM phosphoric acid and once in methanol prior to drying and scintillation counting. Wells containing substrate but no kinase and wells containing a phosphopeptide control were used to set 0% and 100% phosphorylation value, respectively.
(§2) The Kinase Hotspot℠ kinase assay was also used to test the compounds for IC50 or % inhibitions (Reaction Biology Corp.). Inhibitory IC50 values were determined by titration of compound at the optimal kinase concentration (Kinase EC50).

[4] = biological target: Ret(h) (Homo sapiens, UniProt P07949)
Procedure: as §1, §2

[5] = biological target: cSRC(h) (Homo sapiens, UniProt P12931)
Procedure: as §1, §2

[6] = biological target: T2, Flt3(h) (Homo sapiens, UniProt P36888)
T2 sequence (P36888 27-993): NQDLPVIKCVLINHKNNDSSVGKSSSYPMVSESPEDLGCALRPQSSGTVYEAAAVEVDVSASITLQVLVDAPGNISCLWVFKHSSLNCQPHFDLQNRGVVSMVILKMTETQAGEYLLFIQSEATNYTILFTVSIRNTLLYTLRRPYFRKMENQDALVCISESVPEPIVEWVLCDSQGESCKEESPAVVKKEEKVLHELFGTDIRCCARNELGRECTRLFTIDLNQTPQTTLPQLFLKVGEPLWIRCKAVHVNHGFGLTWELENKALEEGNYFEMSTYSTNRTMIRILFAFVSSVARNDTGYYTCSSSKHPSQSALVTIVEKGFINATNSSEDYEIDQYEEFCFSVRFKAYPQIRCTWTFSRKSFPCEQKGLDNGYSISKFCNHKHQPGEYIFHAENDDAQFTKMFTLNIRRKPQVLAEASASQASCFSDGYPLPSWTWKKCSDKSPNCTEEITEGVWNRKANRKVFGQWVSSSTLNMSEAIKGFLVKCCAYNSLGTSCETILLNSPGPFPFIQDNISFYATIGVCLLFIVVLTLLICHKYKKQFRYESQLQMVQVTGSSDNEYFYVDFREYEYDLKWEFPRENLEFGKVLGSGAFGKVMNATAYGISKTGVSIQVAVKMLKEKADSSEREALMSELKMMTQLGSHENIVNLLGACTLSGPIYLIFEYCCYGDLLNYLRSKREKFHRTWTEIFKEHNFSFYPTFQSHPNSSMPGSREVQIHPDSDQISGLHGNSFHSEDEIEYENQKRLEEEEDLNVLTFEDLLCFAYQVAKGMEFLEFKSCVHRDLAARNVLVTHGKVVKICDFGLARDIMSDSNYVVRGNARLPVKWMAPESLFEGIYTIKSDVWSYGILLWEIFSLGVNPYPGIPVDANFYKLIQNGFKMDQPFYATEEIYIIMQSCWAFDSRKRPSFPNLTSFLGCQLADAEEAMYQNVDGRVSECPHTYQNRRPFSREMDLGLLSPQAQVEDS
Procedure: as §1, §2

Sequence of Abl(h) (P00519 whole entry): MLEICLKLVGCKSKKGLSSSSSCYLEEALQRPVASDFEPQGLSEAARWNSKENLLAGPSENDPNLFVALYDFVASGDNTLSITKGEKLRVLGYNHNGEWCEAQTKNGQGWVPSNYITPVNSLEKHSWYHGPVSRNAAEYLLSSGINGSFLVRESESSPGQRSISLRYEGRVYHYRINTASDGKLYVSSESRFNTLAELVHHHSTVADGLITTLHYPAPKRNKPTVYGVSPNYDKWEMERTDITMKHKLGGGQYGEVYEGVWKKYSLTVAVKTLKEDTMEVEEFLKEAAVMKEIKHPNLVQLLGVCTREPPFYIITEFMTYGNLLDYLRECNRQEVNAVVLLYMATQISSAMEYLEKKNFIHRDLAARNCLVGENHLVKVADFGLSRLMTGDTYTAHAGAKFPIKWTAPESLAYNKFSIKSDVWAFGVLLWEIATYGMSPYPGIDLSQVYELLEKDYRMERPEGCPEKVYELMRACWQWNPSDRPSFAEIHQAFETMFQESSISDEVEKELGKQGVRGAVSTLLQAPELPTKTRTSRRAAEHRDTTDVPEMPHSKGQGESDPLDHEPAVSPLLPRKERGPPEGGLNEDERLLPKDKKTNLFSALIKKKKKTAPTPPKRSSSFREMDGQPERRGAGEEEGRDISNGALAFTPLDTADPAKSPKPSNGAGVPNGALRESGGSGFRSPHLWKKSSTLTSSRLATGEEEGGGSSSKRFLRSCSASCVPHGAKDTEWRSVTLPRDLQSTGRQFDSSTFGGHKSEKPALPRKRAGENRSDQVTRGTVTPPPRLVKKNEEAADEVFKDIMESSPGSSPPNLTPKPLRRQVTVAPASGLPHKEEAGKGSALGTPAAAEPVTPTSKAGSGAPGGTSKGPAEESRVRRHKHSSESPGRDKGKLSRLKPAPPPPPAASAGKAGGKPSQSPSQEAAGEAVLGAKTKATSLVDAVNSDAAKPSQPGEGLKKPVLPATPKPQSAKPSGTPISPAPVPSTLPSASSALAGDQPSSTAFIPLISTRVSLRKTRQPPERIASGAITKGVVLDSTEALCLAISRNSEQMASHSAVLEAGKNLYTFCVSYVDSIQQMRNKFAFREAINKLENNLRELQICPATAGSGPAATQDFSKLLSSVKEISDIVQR
Sequence of cSRC(h) (P12931 whole entry): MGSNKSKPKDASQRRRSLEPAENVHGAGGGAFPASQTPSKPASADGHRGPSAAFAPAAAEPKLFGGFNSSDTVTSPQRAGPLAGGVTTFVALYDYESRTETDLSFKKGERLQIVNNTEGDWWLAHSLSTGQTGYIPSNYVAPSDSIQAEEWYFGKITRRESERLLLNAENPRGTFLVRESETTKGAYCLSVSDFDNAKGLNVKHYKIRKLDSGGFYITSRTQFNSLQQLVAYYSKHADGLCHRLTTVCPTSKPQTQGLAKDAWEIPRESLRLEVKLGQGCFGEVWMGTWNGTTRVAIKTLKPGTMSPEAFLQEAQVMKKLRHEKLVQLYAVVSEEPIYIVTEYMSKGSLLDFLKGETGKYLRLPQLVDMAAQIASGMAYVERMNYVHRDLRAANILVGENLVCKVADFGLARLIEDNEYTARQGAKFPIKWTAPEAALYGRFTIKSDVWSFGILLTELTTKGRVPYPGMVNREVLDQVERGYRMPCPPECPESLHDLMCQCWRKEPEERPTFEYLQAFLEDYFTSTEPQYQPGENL
Sequence of Ret(h) (P07949 29-1114): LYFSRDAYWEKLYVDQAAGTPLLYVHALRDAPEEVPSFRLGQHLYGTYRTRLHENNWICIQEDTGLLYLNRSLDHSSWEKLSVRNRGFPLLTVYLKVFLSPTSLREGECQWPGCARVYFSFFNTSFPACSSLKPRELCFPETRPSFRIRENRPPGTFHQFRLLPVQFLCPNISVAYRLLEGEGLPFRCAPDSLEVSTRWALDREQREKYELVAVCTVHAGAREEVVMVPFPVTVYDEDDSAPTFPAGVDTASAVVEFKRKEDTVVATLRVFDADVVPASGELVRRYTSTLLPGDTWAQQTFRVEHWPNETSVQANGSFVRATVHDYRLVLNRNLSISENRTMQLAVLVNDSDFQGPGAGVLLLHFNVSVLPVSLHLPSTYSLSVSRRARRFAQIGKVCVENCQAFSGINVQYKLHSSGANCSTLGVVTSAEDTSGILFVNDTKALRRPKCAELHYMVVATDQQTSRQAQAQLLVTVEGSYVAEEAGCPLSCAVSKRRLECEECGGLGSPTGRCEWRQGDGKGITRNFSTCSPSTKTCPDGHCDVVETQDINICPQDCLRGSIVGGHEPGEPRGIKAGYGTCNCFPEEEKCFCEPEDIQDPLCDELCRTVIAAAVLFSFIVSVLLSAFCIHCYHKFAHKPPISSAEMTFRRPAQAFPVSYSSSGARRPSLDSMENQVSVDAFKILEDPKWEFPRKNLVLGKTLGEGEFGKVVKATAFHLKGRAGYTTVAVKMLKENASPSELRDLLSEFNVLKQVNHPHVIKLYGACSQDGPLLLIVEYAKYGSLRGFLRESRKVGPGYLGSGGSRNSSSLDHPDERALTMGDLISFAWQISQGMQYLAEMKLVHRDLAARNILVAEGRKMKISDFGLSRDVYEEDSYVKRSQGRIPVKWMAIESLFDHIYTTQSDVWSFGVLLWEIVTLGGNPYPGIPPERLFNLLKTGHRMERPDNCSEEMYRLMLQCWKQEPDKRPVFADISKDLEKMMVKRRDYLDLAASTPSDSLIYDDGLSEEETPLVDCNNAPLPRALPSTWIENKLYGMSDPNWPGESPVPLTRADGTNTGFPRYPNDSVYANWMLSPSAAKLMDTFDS
Sequence of KDR(h) (P35968 20-1356): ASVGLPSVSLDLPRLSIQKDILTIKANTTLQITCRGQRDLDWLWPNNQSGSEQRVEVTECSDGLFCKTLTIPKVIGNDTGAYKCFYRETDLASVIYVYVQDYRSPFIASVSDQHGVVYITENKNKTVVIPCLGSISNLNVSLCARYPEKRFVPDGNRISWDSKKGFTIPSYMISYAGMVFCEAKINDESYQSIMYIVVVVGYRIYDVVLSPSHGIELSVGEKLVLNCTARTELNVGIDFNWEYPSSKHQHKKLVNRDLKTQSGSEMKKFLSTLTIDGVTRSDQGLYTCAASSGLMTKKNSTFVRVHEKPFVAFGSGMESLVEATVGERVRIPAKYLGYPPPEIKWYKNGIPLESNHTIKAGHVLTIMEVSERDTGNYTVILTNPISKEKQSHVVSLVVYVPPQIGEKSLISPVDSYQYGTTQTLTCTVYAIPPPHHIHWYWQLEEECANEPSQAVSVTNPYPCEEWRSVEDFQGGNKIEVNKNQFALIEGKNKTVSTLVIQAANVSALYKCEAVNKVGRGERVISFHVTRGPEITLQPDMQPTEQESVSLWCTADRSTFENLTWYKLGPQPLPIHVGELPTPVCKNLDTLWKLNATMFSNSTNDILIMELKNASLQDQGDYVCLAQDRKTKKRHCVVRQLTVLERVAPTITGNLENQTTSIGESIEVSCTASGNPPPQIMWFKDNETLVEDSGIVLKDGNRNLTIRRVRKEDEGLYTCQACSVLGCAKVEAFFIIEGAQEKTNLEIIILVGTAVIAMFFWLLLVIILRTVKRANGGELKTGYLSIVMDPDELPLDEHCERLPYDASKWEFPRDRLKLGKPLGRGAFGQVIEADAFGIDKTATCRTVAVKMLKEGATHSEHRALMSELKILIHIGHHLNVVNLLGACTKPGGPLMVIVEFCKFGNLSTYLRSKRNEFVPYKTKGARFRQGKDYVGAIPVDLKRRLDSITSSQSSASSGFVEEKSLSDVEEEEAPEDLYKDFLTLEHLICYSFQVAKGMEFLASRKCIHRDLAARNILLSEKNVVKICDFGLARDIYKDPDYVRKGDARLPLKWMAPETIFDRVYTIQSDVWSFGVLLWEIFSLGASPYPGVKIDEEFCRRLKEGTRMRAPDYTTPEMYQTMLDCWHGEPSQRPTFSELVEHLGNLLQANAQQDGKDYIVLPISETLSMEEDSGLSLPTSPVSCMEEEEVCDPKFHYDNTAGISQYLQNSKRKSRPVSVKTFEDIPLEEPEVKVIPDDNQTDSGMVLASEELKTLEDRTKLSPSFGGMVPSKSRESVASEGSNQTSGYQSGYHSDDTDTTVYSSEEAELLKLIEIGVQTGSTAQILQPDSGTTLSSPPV

| SMILES | inhibition at 1 µM [1] | inhibition at 1 µM [2] | inhibition at 1 µM [3] | inhibition at 1 µM [4] | inhibition at 1 µM [5] | inhibition at 1 µM [6] |
| --- | --- | --- | --- | --- | --- | --- |
| Cc1cc2c(F)c(Oc3nc(Nc4cc(C5CC5)[nH]n4)cc(N4CCN(c5ccccn5)CC4)n3)ccc2[nH]1 [Compound 25] | 108% | 93% | 101% | 101% | 100% | 100% |
| C/C=C/c1cc(Nc2cc(N3CCN(CCOC)CC3)nc(Oc3ccc4[nH]c(C)cc4c3F)n2)n[nH]1 [Compound 54] | 108% | 96% | 85% | 100% | 99% | 99% |
| Cc1cc2c(F)c(Oc3nc(Nc4cc(C5CC5)[nH]n4)cc(N4CCN(CC(F)(F)F)CC4)n3)ccc2[nH]1 [Compound 38] | 108% | 95% | 80% | 101% | 98% | 98% |
| COCC1CCN(c2cc(Nc3cc(C4CC4)[nH]n3)nc(Oc3ccc4[nH]c(C)cc4c3F)n2)C1 (stereo not drawn) [Compound 44] | 94% | 90% | 97% | 100% | 102% | 100% |
| Cc1cc2c(F)c(Oc3nc(Nc4cc(C5CC5)[nH]n4)cc(N4CCNC(=O)C4)n3)ccc2[nH]1 [Compound 19] | 108% | 93% | 100% | 100% | 99% | 99% |
| Cc1cc2c(F)c(Oc3nc(Nc4cc(C5CC5)[nH]n4)cc(N4CCN(S(C)(=O)=O)CC4)n3)ccc2[nH]1 [Compound 23] | 108% | 93% | 101% | 100% | 100% | 100% |
| COC1CCN(c2cc(Nc3cc(C4CC4)[nH]n3)nc(Oc3ccc4[nH]c(C)cc4c3F)n2)C1 (stereo not drawn) [Compound 16] | 103% | 92% | 101% | 101% | 100% | 98% |

Next, values leading:

| inhibition at 1 µM [1] | inhibition at 1 µM [2] | inhibition at 1 µM [3] | inhibition at 1 µM [4] | inhibition at 1 µM [5] | inhibition at 1 µM [6] | SMILES |
| --- | --- | --- | --- | --- | --- | --- |
| 110% | 96% | 99% | 99% | 99% | 101% | Cc1cc2c(F)c(Oc3nc(Nc4cc(C5CC5)[nH]n4)cc(N4CCN(C)CC4)n3)cc(F)c2[nH]1 [Compound 81] |
| 113% | 91% | 97% | 101% | 96% | 99% | CCN1CCN(c2cc(Nc3cc(C)[nH]n3)nc(Oc3cc(F)c4[nH]c(C)cc4c3F)n2)CC1 [Compound 103] |
| 116% | 92% | 91% | 102% | 104% | 102% | C/C=C/c1cc(Nc2cc(N3CCOCC3)nc(Oc3ccc4c(cc(C)n4C)c3F)n2)n[nH]1 [Compound 121] |
| 111% | 90% | 95% | 99% | 96% | 98% | Cc1cc(Nc2cc(N3CCOCC3)nc(Oc3cc(F)c4[nH]c(C)cc4c3F)n2)n[nH]1 [Compound 107] |
| 109% | 91% | 101% | 101% | 104% | 102% | Cc1cc2c(F)c(Oc3nc(Nc4cc(C5CC5)[nH]n4)cc(N4CCN(C)CC4)n3)ccc2n1C [Compound 122] |
| 112% | 96% | 94% | 102% | 100% | 99% | C/C=C/c1cc(Nc2cc(N3CCC(O)CC3)nc(Oc3ccc4[nH]c(C)cc4c3F)n2)n[nH]1 [Compound 59] |

— patent US10245261B2, “Substituted indol-5-ol derivatives and their therapeutic applications” (NantBioScience, Inc., priority 2013, dated 2019)
